Test results reported in PMC10569036.

How the values were obtained:
[1] = shake flask on a mixture of 185; loss from the water phase only; LC-QTOF peak areas; conditions: room
[2] = shake flask on a mixture of 185; loss from the water phase only; LC-Orbitrap peak areas; conditions: room

CCCCOC(=O)C(C)Oc1ccc(Oc2ccc(C(F)(F)F)cn2)cc1 (centres unmarked)
log partition 1-octanol / HPLC water, unbuffered, traces of methanol / DMSO [1]: 1.531 log10
log partition butyl acetate / HPLC water, unbuffered, traces of methanol / DMSO [1]: 1.572 log10
log partition chloroform / HPLC water, unbuffered, traces of methanol / DMSO [1]: 2.874 log10
log partition cyclohexane / HPLC water, unbuffered, traces of methanol / DMSO [1]: 2.387 log10
log partition dichloromethane / HPLC water, unbuffered, traces of methanol / DMSO [1]: 2.183 log10
log partition n-hexane / HPLC water, unbuffered, traces of methanol / DMSO [1]: 2.824 log10
log partition n-octane / HPLC water, unbuffered, traces of methanol / DMSO [1]: 2.349 log10
log partition n-undecane / HPLC water, unbuffered, traces of methanol / DMSO [1]: 2.336 log10
log partition oleylalcohol / HPLC water, unbuffered, traces of methanol / DMSO [1]: 1.771 log10
log partition toluene / HPLC water, unbuffered, traces of methanol / DMSO [1]: 2.12 log10
log partition 1-octanol / HPLC water, unbuffered, traces of methanol / DMSO [2]: 1.133 log10
log partition butyl acetate / HPLC water, unbuffered, traces of methanol / DMSO [2]: 4.432 log10
log partition chloroform / HPLC water, unbuffered, traces of methanol / DMSO [2]: 2.334 log10
log partition cyclohexane / HPLC water, unbuffered, traces of methanol / DMSO [2]: -0.5049 log10
log partition dichloromethane / HPLC water, unbuffered, traces of methanol / DMSO [2]: 3.927 log10
log partition n-hexane / HPLC water, unbuffered, traces of methanol / DMSO [2]: -1.029 log10
log partition n-octane / HPLC water, unbuffered, traces of methanol / DMSO [2]: -0.5477 log10
log partition n-undecane / HPLC water, unbuffered, traces of methanol / DMSO [2]: -0.5963 log10
log partition oleylalcohol / HPLC water, unbuffered, traces of methanol / DMSO [2]: 1.914 log10
log partition toluene / HPLC water, unbuffered, traces of methanol / DMSO [2]: -0.7173 log10

CCCOC(=O)c1ccc(C(=O)OCCC)nc1
log partition 1-octanol / HPLC water, unbuffered, traces of methanol / DMSO [1]: 2.274 log10
log partition butyl acetate / HPLC water, unbuffered, traces of methanol / DMSO [1]: 2.305 log10
log partition chloroform / HPLC water, unbuffered, traces of methanol / DMSO [1]: 2.347 log10
log partition cyclohexane / HPLC water, unbuffered, traces of methanol / DMSO [1]: 2.074 log10
log partition dichloromethane / HPLC water, unbuffered, traces of methanol / DMSO [1]: 2.554 log10
log partition n-hexane / HPLC water, unbuffered, traces of methanol / DMSO [1]: 2.244 log10
log partition n-octane / HPLC water, unbuffered, traces of methanol / DMSO [1]: 2.086 log10
log partition n-undecane / HPLC water, unbuffered, traces of methanol / DMSO [1]: 2.019 log10
log partition oleylalcohol / HPLC water, unbuffered, traces of methanol / DMSO [1]: 2.412 log10
log partition toluene / HPLC water, unbuffered, traces of methanol / DMSO [1]: 2.485 log10
log partition 1-octanol / HPLC water, unbuffered, traces of methanol / DMSO [2]: 1.279 log10
log partition butyl acetate / HPLC water, unbuffered, traces of methanol / DMSO [2]: 1.476 log10
log partition chloroform / HPLC water, unbuffered, traces of methanol / DMSO [2]: 1.242 log10
log partition cyclohexane / HPLC water, unbuffered, traces of methanol / DMSO [2]: 1.195 log10
log partition dichloromethane / HPLC water, unbuffered, traces of methanol / DMSO [2]: 1.399 log10
log partition n-hexane / HPLC water, unbuffered, traces of methanol / DMSO [2]: 1.051 log10
log partition n-octane / HPLC water, unbuffered, traces of methanol / DMSO [2]: 1.355 log10
log partition n-undecane / HPLC water, unbuffered, traces of methanol / DMSO [2]: 0.8718 log10
log partition oleylalcohol / HPLC water, unbuffered, traces of methanol / DMSO [2]: 1.396 log10
log partition toluene / HPLC water, unbuffered, traces of methanol / DMSO [2]: 1.5 log10

CCCCNS(=O)(=O)c1ccc(C)cc1
log partition 1-octanol / HPLC water, unbuffered, traces of methanol / DMSO [1]: 1.761 log10
log partition butyl acetate / HPLC water, unbuffered, traces of methanol / DMSO [1]: 1.471 log10
log partition chloroform / HPLC water, unbuffered, traces of methanol / DMSO [1]: 1.664 log10
log partition cyclohexane / HPLC water, unbuffered, traces of methanol / DMSO [1]: 0.988 log10
log partition dichloromethane / HPLC water, unbuffered, traces of methanol / DMSO [1]: 1.556 log10
log partition n-hexane / HPLC water, unbuffered, traces of methanol / DMSO [1]: 0.6036 log10
log partition n-octane / HPLC water, unbuffered, traces of methanol / DMSO [1]: 0.3273 log10
log partition n-undecane / HPLC water, unbuffered, traces of methanol / DMSO [1]: 0.4324 log10
log partition oleylalcohol / HPLC water, unbuffered, traces of methanol / DMSO [1]: 1.505 log10
log partition toluene / HPLC water, unbuffered, traces of methanol / DMSO [1]: 1.679 log10
log partition 1-octanol / HPLC water, unbuffered, traces of methanol / DMSO [2]: 1.509 log10
log partition butyl acetate / HPLC water, unbuffered, traces of methanol / DMSO [2]: 1.21 log10
log partition chloroform / HPLC water, unbuffered, traces of methanol / DMSO [2]: 1.689 log10
log partition cyclohexane / HPLC water, unbuffered, traces of methanol / DMSO [2]: 0.5819 log10
log partition dichloromethane / HPLC water, unbuffered, traces of methanol / DMSO [2]: 1.83 log10
log partition n-hexane / HPLC water, unbuffered, traces of methanol / DMSO [2]: 0.2985 log10
log partition n-octane / HPLC water, unbuffered, traces of methanol / DMSO [2]: 0.4632 log10
log partition n-undecane / HPLC water, unbuffered, traces of methanol / DMSO [2]: 0.151 log10
log partition oleylalcohol / HPLC water, unbuffered, traces of methanol / DMSO [2]: 0.9177 log10
log partition toluene / HPLC water, unbuffered, traces of methanol / DMSO [2]: 1.122 log10

Cc1cc2c3c(c1)C(c1ccccc1)=N[C@@H](NC(=O)c1ccncc1)C(=O)N3CC2
log partition 1-octanol / HPLC water, unbuffered, traces of methanol / DMSO [1]: 2.552 log10
log partition butyl acetate / HPLC water, unbuffered, traces of methanol / DMSO [1]: 2.569 log10
log partition chloroform / HPLC water, unbuffered, traces of methanol / DMSO [1]: 2.171 log10
log partition cyclohexane / HPLC water, unbuffered, traces of methanol / DMSO [1]: 0.1916 log10
log partition dichloromethane / HPLC water, unbuffered, traces of methanol / DMSO [1]: 2.144 log10
log partition n-hexane / HPLC water, unbuffered, traces of methanol / DMSO [1]: -0.2402 log10
log partition n-octane / HPLC water, unbuffered, traces of methanol / DMSO [1]: -0.1186 log10
log partition n-undecane / HPLC water, unbuffered, traces of methanol / DMSO [1]: -0.161 log10
log partition oleylalcohol / HPLC water, unbuffered, traces of methanol / DMSO [1]: 2.273 log10
log partition toluene / HPLC water, unbuffered, traces of methanol / DMSO [1]: 2.127 log10
log partition 1-octanol / HPLC water, unbuffered, traces of methanol / DMSO [2]: 1.331 log10
log partition butyl acetate / HPLC water, unbuffered, traces of methanol / DMSO [2]: 2.844 log10
log partition chloroform / HPLC water, unbuffered, traces of methanol / DMSO [2]: 1.438 log10
log partition cyclohexane / HPLC water, unbuffered, traces of methanol / DMSO [2]: 0.6947 log10
log partition dichloromethane / HPLC water, unbuffered, traces of methanol / DMSO [2]: 2.402 log10
log partition n-hexane / HPLC water, unbuffered, traces of methanol / DMSO [2]: -0.4559 log10
log partition n-octane / HPLC water, unbuffered, traces of methanol / DMSO [2]: 0.088 log10
log partition n-undecane / HPLC water, unbuffered, traces of methanol / DMSO [2]: 0.07291 log10
log partition oleylalcohol / HPLC water, unbuffered, traces of methanol / DMSO [2]: 1.282 log10
log partition toluene / HPLC water, unbuffered, traces of methanol / DMSO [2]: 1.875 log10
